Common to all, as to test: relative viability (nuclei count vs DMSO), 5 days (fraction); higher = more cells survive
Compound in test [1]: C1CC(C1)(C(=O)O)C(=O)O.[NH2-].[NH2-].[Pt+2] [Carboplatin] + Cc1cc(Nc2cc(N3CCN(C)CC3)nc(Sc3ccc(NC(=O)C4CC4)cc3)n2)n[nH]1 [Tozasertib] (partner 0.1 µM)
Put shortly: (§1)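 Relative viability divides the nuclei count in treated wells by that in vehicle wells. Lung cancer cell lines were seeded in 1536-well plates, dosed by pin tool the next day, and fixed and stained after 5 days in one step with final 0.05% Triton X-100, 1% formaldehyde and 1 ug/ml Hoechst. Dosing was a single drug or a fixed anchor-drug dose plus five library-drug doses (not always all listed) in √10 steps, and values are medians of duplicate plates imaged at 4×.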

Compound in test [2]: CC[C@H](C)N1C=C(C2=C(C=C(C=C21)C3=CN=C(C=C3)N4CCNCC4)C(=O)NCC5=C(C=C(NC5=O)C)C)C [GSK126] + CC(=O)Nc1cccc(-n2c(=O)n(C3CC3)c(=O)c3c(Nc4ccc(I)cc4F)n(C)c(=O)c(C)c32)c1 [Trametinib] (partner 0.02 µM)
The essentials:
as §1

Compound in test [3]: CC[C@H](C)N1C=C(C2=C(C=C(C=C21)C3=CN=C(C=C3)N4CCNCC4)C(=O)NCC5=C(C=C(NC5=O)C)C)C [GSK126] + Nc1nc2[nH]cc(CCc3ccc(C(=O)N[C@@H](CCC(=O)O)C(=O)O)cc3)c2c(=O)[nH]1 [Pemetrexed] (partner 0.2 µM)
The essentials: as §1

Compound in test [4]: NS(=O)(=O)OC[C@@H]1C[C@@H](n2ccc3c(N[C@H]4CCc5ccccc54)ncnc32)C[C@@H]1O [MLN4924] + Cc1nc(Nc2ncc(C(=O)Nc3c(C)cccc3Cl)s2)cc(N2CCN(CCO)CC2)n1 [Dasatinib] (partner 0.075 µM)
Put shortly:
as §1

For LCLC-97TM1, the relative viability in test [1] (first compound 0.08 µM) was 0.235; in test [1] (first compound 0.253 µM), 0.292; in test [1] (first compound 0.8 µM), 0.249; in test [1] (first compound 2.53 µM) it was 0.192; in test [1] (first compound 8 µM), 0.212; in test [2] (first compound 0.08 µM) it was 0.205. For the same cell line, the relative viability in test [2] (first compound 0.253 µM) was 0.2; in test [2] (first compound 0.8 µM), 0.204; in test [2] (first compound 2.53 µM), 0.211; in test [2] (first compound 8 µM), 0.209; in test [3] (first compound 0.08 µM), 0.19; in test [3] (first compound 0.253 µM), 0.193. For the same cell line, the relative viability in test [3] (first compound 0.8 µM) was 0.171; in test [3] (first compound 2.53 µM), 0.179; in test [3] (first compound 8 µM), 0.194; in test [4] (first compound 0.04 µM), 1.01; in test [4] (first compound 0.1265 µM) it was 0.683; in test [4] (first compound 0.4 µM) it was 0.767. In addition, the results for the relative viability in test [4] (first compound 1.265 µM) and in test [4] (first compound 4 µM) were 0.113 and 0.104, respectively.

Take LCLC-103H: the relative viability in test [1] (first compound 0.08 µM) is 0.517; in test [1] (first compound 0.253 µM), 0.466; in test [1] (first compound 0.8 µM), 0.439; in test [1] (first compound 2.53 µM), 0.532; in test [1] (first compound 8 µM), 0.473; in test [2] (first compound 0.08 µM), 0.71. Further, the relative viability in test [2] (first compound 0.253 µM) amounted to 0.708; in test [2] (first compound 0.8 µM), 0.647; in test [2] (first compound 2.53 µM) it was 0.64; in test [2] (first compound 8 µM), 0.725; in test [3] (first compound 0.08 µM), 0.397; in test [3] (first compound 0.253 µM), 0.499. Also, the relative viability in test [3] (first compound 0.8 µM) worked out at 0.431; in test [3] (first compound 2.53 µM), 0.469; in test [3] (first compound 8 µM), 0.538; in test [4] (first compound 0.04 µM), 0.452; in test [4] (first compound 0.1265 µM), 0.569; in test [4] (first compound 0.4 µM), 0.653. Besides, the relative viability was 0.141 in test [4] (first compound 1.265 µM) and 0.112 in test [4] (first compound 4 µM).

On to LK-2, for which the relative viability in test [1] (first compound 0.08 µM) was 0.16; in test [1] (first compound 0.253 µM), 0.168; in test [1] (first compound 0.8 µM), 0.184; in test [1] (first compound 2.53 µM) it was 0.163; in test [1] (first compound 8 µM), 0.137; in test [2] (first compound 0.08 µM), 0.861. Moreover, the relative viability in test [2] (first compound 0.253 µM) turned out to be 0.817; in test [2] (first compound 0.8 µM), 0.779; in test [2] (first compound 2.53 µM), 0.857; in test [2] (first compound 8 µM) it was 0.575; in test [3] (first compound 0.08 µM), 0.306; in test [3] (first compound 0.253 µM) it was 0.297. Also, the relative viability is 0.293 in test [3] (first compound 0.8 µM); 0.325 in test [3] (first compound 2.53 µM); 0.223 in test [3] (first compound 8 µM); 0.28 in test [4] (first compound 0.04 µM); 0.261 in test [4] (first compound 0.1265 µM); 0.285 in test [4] (first compound 0.4 µM). In addition, the values for the relative viability in test [4] (first compound 1.265 µM) and in test [4] (first compound 4 µM) were 0.162 and 0.196, respectively.

On to LOU-NH91, for which the relative viability in test [1] (first compound 0.08 µM) is 0.727; in test [1] (first compound 0.253 µM), 0.807; in test [1] (first compound 0.8 µM) it was 0.671; in test [1] (first compound 2.53 µM) it was 0.63; in test [1] (first compound 8 µM), 0.637; in test [2] (first compound 0.08 µM) it was 0.813. The relative viability in test [2] (first compound 0.253 µM) is 0.771; in test [2] (first compound 0.8 µM) it was 0.765; in test [2] (first compound 2.53 µM), 0.821; in test [2] (first compound 8 µM), 0.761; in test [3] (first compound 0.08 µM), 0.399; in test [3] (first compound 0.253 µM) it was 0.35. Also, the relative viability in test [3] (first compound 0.8 µM) is 0.376; in test [3] (first compound 2.53 µM) it was 0.362; in test [3] (first compound 8 µM), 0.423; in test [4] (first compound 0.04 µM), 0.554; in test [4] (first compound 0.1265 µM) it was 0.708; in test [4] (first compound 0.4 µM), 0.778. Also, the relative viability is 0.494 in test [4] (first compound 1.265 µM) and 0.415 in test [4] (first compound 4 µM).

These data come from the supplement of paper PMC10307832.
